{"source": "paper PMC9656482", "about": "“In Vitro and In Vivo Biological Activity of Ruthenium 1,10-Phenanthroline-5,6-dione Arene Complexes” (International Journal of Molecular Sciences, 2022)", "key": {"[1]": {"system": "A2780 cells", "assay": "Apoptosis, Annexin V-Alexa Fluor 488/propidium iodide double staining", "type": "cell-based, human", "conditions": "A2780, 48 h, IC50 of the complex", "description": "To understand if the loss of cell viability of an A2780 cell incubated with JHOR11 is due to cell apoptosis, cells were incubated with the IC50 of the complex and then double-stained with Annexin V, conjugated with AlexaFluor 488 and with propidium iodide (PI) to discriminate between live cells (unstained), cells in initial apoptosis (green-stained cells), cells in late apoptosis (double-stained cells) and cells in necrosis (red-stained cells).\nThe double staining of the A2780 cells incubated with JHOR11 for apoptosis evaluation followed procedures previously described. Briefly, A2780 cells were seeded on 6-well plates in a density of 2 × 10^5 cells/well, and incubated for 48 h with IC50 JHOR11, 0.1% (v/v) DMSO as vector control, and 3.5 µM cisplatin as positive control. Cells were then detached from the wells and double stained using the dead cell apoptosis kits with Annexin V for flow cytometry (Thermo Fisher Scientific) according to manufacturer’s instructions. The percentage of live cells (unstained), cells in initial apoptosis (stained with annexin V-Alexa Fluor 488), cells in late apoptosis (double stained with annexin V-Alexa Fluor 488 and propidium iodide) or cells in necrosis (stained with propidium iodide) was quantified using an Attune acoustic focusing flow cytometer and respective software (Thermo Fisher Scientific)."}, "[2]": {"system": "A2780 cells", "assay": "Trypan blue exclusion method", "type": "cell-based, human", "conditions": "A2780, 48 h", "description": "A2780 cells were exposed for 48 h to the IC50 of JHOR11, and to a concentration 10 times higher and 10 times lower the IC50, and the live (transparent) and dead (blue) cells that remained adherent or in the supernatant were counted (Figure 6). A2780 cells were also incubated with 0.1% (v/v) DMSO as a vector control, and 0.1 µM doxorubicin as positive control (Supplementary Information, Figure S8).\nA2780 cells were seeded on a 24-well culture plate at a density of 37,500 cells/well. After 24 h to assure cell adherence, the medium was replaced by fresh RPMI supplemented with 0.1% (v/v) DMSO, 0.1 µM Doxorubicin or JHOR11 complex in three different concentrations: 1/10 IC50, IC50 or 10 × IC50. After 8 h, 24 h or 48 h incubation, the supernatant was removed and mixed with trypan blue (Thermo Fisher Scientific) to a final concentration 0.1% (w/v). In parallel, cells were detached from the well, centrifuged at 500× g and pellet was resuspended in 0.1% (w/v) Trypan blue. The number of viable cells and cells with compromised membrane (stained with blue) in both fractions were counted in a haemocytometer (Hirschmann, Eberstadt, Germany) and a CXX41 inverted microscope (Olympus, Tokyo, Japan)."}, "[3]": {"system": "A2780 cells", "assay": "Autophagy assay (flow cytometry)", "type": "cell-based, human", "conditions": "A2780, 48 h, IC50 of JHOR11", "description": "To understand if the cytotoxic effect of the complex is correlated with autophagy, A2780 cells were exposed for 48 h to the IC50 of complex JHOR11. They were then incubated with an autophagic fluorescent dye (Abcam) that becomes highly fluorescent when incorporated into pre-autophagosomes, autophagosomes or autophagolysosomes. Cells were also incubated with DMSO 0.1% (v/v) for vehicle control, and with 1.5 μM rapamycin and 3.5 μM cisplatin as positive controls.\nThe fluorescence quantification and percentage of autophagic cells was performed on an Attune acoustic focusing flow cytometer and respective software (Thermo Fisher Scientific)."}, "[4]": {"system": "normal human dermal fibroblasts", "assay": "Wound scratch assay", "type": "cell-based", "conditions": "24 h, IC50 of the complex, versus vector control", "description": "Cell migration is an essential process for tumor progression, being one of the major events that leads to cancer metastasis. To determine if JHOR11 inhibits cell tumorigenicity, the cell migration ability was analyzed by the wound scratch assay. […] The measure of the wound scratch after 0 h and 24 h allows the determination of the migration ability of the cells.\nFor wound scratch assay normal human dermal fibroblasts were seeded on […] tissue plates in a cell density of 4 × 10^5 cells/plate and incubated at 37 °C, 5% (v/v), 99% (v/v) relative humidity until reach confluence. A sterile micropipette tip was then used to make a scratch on the confluent monolayer and medium was replaced by fresh medium supplemented with IC50 JHOR11 or 0.1% (v/v) DMSO, as vector control."}, "[5]": {"system": "zebrafish embryos", "assay": "In vivo toxicity assessment using zebrafish embryos", "description": "The toxicity of the JHOR10 and JHOR11 compounds was assayed in zebrafish embryos. There was a NOEC (No Observed Effect Concentration) in the case of JHOR11 of 80 µM (Table 2). The NOEC is the concentration used for the xenotransplantation experiments in order not to affect the normal development of the embryos and being able, in parallel, to assay the effect of the compound over the injected cells. Apart from that, the mortality assayed in the toxicity assays supports the concentration obtained in the NOEC, with a low mortality of the embryos when they are incubated with JHOR11 (Figure 13 and Figure 14).\nWild-type zebrafish were housed in 30 L tanks within a water recirculation system under controlled physicochemical conditions: pH 7–7.5, temperature 26 ± 2 °C, conductivity 600 µS/cm and light/dark photoperiod of 14/10 h. The adult fish were fed Gemma Micro 300 (Skretting) twice a day. Fertilized eggs were collected after natural spawning and stored in Petri dishes for 48 h until being injected, or 72 h until being exposed to different concentrations of ruthenium compounds.\nAt 72 h post-fertilization (hpf), the embryos were exposed to increasing concentrations of two ruthenium compounds to determine toxicological estimates: LC50 with no observed effect concentration (NOEC) and lowest observed effect concentration (LOEC). The acute toxicity assessment of the compounds was performed following the standards of the OECD Test Guideline Program.\nThe embryos were individually transferred to 96-well plates containing 100 µL of each desired concentration. The plates were then placed in an incubator with a temperature of 26 °C and a photoperiod of 14 h of light and 10 h of darkness. The duration of the experiment was 96 h, and observations were made every 24 h recording the four lethal effects indicated by the OECD: embryo coagulation, absence of somite formation, absence of separation of the yolk tail and absence of heartbeat. All compounds were dissolved with dimethylsulfoxide (DMSO) with a final concentration of 1%. In each test, seven concentrations were analyzed for each compound, these being: JHOR10 (10, 20, 30, 40, 50, 55, 60 µM) and JHOR11 (50, 80, 100, 140, 200, 300, 400 µM).\nFor the evaluation of toxicity, the mortality data were analyzed by probit analysis with the ToxRat software (ToxRat Solutions. 2003. ToxRat®. Software for the statistical analysis of biotests. Alsdorf, Germany)."}, "[6]": {"system": "BAX and BCL-2 protein expression in A2780 cells", "conditions": "A2780, 48 h, IC50 of JHOR11, normalized to DMSO control = 1", "procedure": "The ratio between BAX and BCL-2 protein expression indicates the level of susceptibility of the cell to the intrinsic apoptotic pathway [26, 27, 28]. The BAX and BCL-2 protein expression was quantified by Western blot analysis to calculate the apoptotic index of cells after 48 h incubation with IC50 of JHOR11, using the quantification of β-actin as the internal control and 0.1% (v/v) DMSO as the vehicle control (Figure 4).\nThe apoptotic index was determined by quantification of BAX and BCL-2 protein expression by Western blot, as previously described [18]. Briefly, 4 × 10^6 cells were seeded on T-flasks with 25 cm^2 for 24 h and then the medium was replaced by a fresh medium supplemented with IC50 JHOR11, 0.1% (v/v) DMSO (vector control) or 0.1 µM doxorubicin (positive control). After 48 h incubation, cells were detached with a cell scraper and BAX, BCL-2 and β-actin proteins were quantified in a PVDF membrane [18]. The apoptotic ratio BAX/BCL-2 was calculated after normalization of the BAX and BCL-2 band intensity with respective β-actin band intensity and to the values of the DMSO-treated sample, measured using ImageJ2 software [41]."}, "[7]": {"system": "chicken embryo", "assay": "Ex ovo chorioallantoic membrane (CAM) assay", "procedure": "Each chicken embryo was exposed to the IC50 of JHOR11 and 0.1% (v/v) DMSO as vector control and the number of vessels in each treated region was counted at 0 h, and after 24 h and 48 h incubation at 37 °C, as previously described [39].\nThe CAM assay was performed as previously described [18, 39, 43]. Fertilized eggs with 48 h incubation were opened and stabilized for 24 h in white weighing boats. Two silicone rings were positioned in each embryo and 40 mL IC50 JHOR11 in phosphate-buffered saline (PBS) or 0.1% (v/v) DMSO in PBS, as vector control, were placed in each o-ring. The region delimited by each o-ring was photographed at 0 h, 24 h, 48 h with a digital USB microscope camera (Opti-Tekscope OT-V1). The newly formed veins were counted using ImageJ as previously described [37], and values were presented after normalization with the values obtained for control sample."}, "[8]": {"conditions": "zebrafish embryos exposed from 72 hpf, 96 h"}}, "note": "Values joined by “and” are separate entries in the source; they are usually repeats but may differ in a detail not shown here. Identical values can stand only once."}
{"smiles": "Cc1ccc(C(C)C)cc1.F[P-](F)(F)(F)(F)F.O=C1C(=O)c2cccnc2-c2ncccc21.[Cl][Ru+]", "note": "[JHOR11]", "values": [{"measurement": "percentage of apoptotic cells", "setting": "[1]", "result": 3, "unit": "%"}, {"measurement": "cells in the supernatant at 1/10 IC50 (Trypan blue)", "setting": "[2]; 1/10 IC50", "result": "exclusively live cells"}, {"measurement": "cells in the supernatant with increasing concentration (Trypan blue)", "setting": "[2]; 1/10 IC50, IC50, 10 × IC50", "result": "increased percentage of cells in the supernatant"}, {"measurement": "percentage of cells with autophagic events", "setting": "[3]", "result": "48.8 ± 7.5", "unit": "%"}, {"measurement": "percentage of regeneration of the wound scratch", "setting": "[4]", "result": "no significant differences"}, {"measurement": "LC50", "setting": "[5]; [8]", "result": 225, "unit": "µM"}, {"measurement": "NOEC (No Observed Effect Concentration)", "setting": "[5]; [8]", "result": "80 µM and 80.00 µM"}, {"measurement": "mortality of the embryos", "setting": "[5]; zebrafish embryos incubated with compound", "result": "low mortality"}, {"measurement": "apoptotic index (BAX/BCL-2 ratio)", "setting": "[6]", "result": "lower than 1"}, {"measurement": "newly formed vessels (angiogenesis)", "setting": "[7]; IC50 of JHOR11, 24 h and 48 h, versus DMSO-treated regions", "result": "no anti- or pro-angiogenic effects"}, {"measurement": "death of chicken embryos", "setting": "[7]; six embryos, 48 h, IC50 of JHOR11", "result": "did not induce the death"}]}
